Measured values: patent publication US20070092527A1, “Proton-sensing g-protein coupled receptors and dna sequences thereof” (NOVARTIS AG, priority 2003, published 2007)
Values belong to the compound of their own block, whether it stands above or below them.

Key:
OGR1 [1] = target: T1, OGR1 (Homo sapiens, UniProt Q15743); assay: Inositol phosphate (IP) formation assay, cells expressing OGR1; type: cell-based; settings: for Inhibition of OGR1-dependent IP formation: stimulated at pH 6.9, micromolar concentrations
T1 construct: His; expressed in transfected cells
Target sequence in this assay (Q15743 whole entry): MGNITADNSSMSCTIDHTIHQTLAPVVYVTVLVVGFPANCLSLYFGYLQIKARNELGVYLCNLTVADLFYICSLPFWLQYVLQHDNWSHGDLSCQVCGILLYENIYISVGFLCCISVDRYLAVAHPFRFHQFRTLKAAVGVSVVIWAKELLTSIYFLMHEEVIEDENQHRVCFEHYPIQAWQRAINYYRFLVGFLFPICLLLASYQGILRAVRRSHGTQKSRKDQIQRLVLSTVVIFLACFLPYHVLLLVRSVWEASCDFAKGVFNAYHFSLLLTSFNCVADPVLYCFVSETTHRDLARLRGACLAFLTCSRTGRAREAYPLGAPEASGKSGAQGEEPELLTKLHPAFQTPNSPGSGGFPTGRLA

[2] = tested on: thrombin-stimulated IP formation (endogenous receptors in CCL39 cells); assay: Thrombin-stimulated IP formation in CCL39 cells; type: cell-based, hamster; settings: for Effect on thrombin-stimulated IP formation: control CCL39 cells
[3] = tested on: MG63 human osteosarcoma cells; assay: IP formation in MG63 human osteosarcoma cells (endogenous OGR1 mRNA); type: cell-based
Human TDAG8 [4] = target: T2, Human TDAG8 (Homo sapiens, UniProt Q8IYL9); assay: cAMP formation assay, TDAG8; type: cell-based; settings: TDAG8
T2 construct: His; expressed in transfected cells; host or cells: CCL39 (cAMP formation); CCL39 CRE-luc (luciferase reporter)
Method: (§1) Stable cell lines expressing TDAG8 are generated in either CCL39 cells or in CCL39 CRE-luc cells which stably express a cAMP-dependent luciferase reporter to detect changes in cAMP in response to ligand. Stable cell lines are generated In the above cell lines by transfecting the TDAG8 cDNA expression construct using Effectene (Qiagen, Basel, Switzerland) according to the manufacturers protocol. Transfected cells are selected in the presence of 400 μg/ml of G418. After 3 weeks of antibiotic selection, individual clones are picked and expanded for further analysis.

Human GPR4 [5] = target: T3, Human GPR4 (Homo sapiens, UniProt P46093); assay: cAMP formation assay, GPR4; type: cell-based; settings: GPR4
T3 construct: Human GPR4 is amplified from genomic DNA using primers GPR4F and GPR4R; expressed in transfected cells; host or cells: HEK293 (transient)
Method: (§2) Human GPR4 is amplified from genomic DNA using primers GPR4F and GPR4R (5′ CACC ATGGGCAACCACACGTGGGAGGGCTGC 3′ and 5′ TCATTGTGCTGGCGGCAGCATCTTCAGCTGCA 3′ respectively). The PCR reaction mixture contains 0.2 mM dNTPs, 1×PCR buffer containing 1.5 mM MgCl2, 0.5 Units Taq DNA polymerase, 40 pmol each primer and sterile water in a total volume of 50 μl. The template for this reaction is human genomic DNA (Promega, Southampton, UK). PCR is performed using a Biometra T3 Thermocycler using the following cycling conditions: Denaturation at 95° C. for 2 min followed by 35 cycles of denaturation at 95° C. for 15s, annealing at 60° C. for 15 s, and extension at 72° C. for 1 min. A final extension at 72° C. is performed for 7 min. The 1.1 kb PCR product is purified and cloned pcDNA3.1 DN5-His-TOPO (Invitrogen, Paisley, UK).

Human GPR4 [6] = target: T4, Human GPR4 (Homo sapiens, UniProt P46093, E51Q/F19H/F93P/Q349E); assay: cAMP formation assay, GPR4; type: cell-based
T4 construct: Human GPR4 is amplified from genomic DNA using primers GPR4F and GPR4R; expressed in transfected cells; host or cells: HEK293 (transient)
Method: as §2

[7] = tested on: forskolin-stimulated adenylyl cyclase; assay: Forskolin-stimulated adenylyl cyclase in other cell systems; type: cell-based
Human TDAG8 [8] = target: T5, Human TDAG8 (Homo sapiens, UniProt Q8IYL9, A43P/F130I/N97L/Q180E/W80T); assay: cAMP formation assay, TDAG8; type: cell-based; settings: CCL39 cells stably expressing the receptor; mean+/-sem, N=6
T5 construct: His; expressed in transfected cells; host or cells: CCL39 (cAMP formation); CCL39 CRE-luc (luciferase reporter)
Method: as §1

Human TDAG8 [9] = target: T5, Human TDAG8; assay: cAMP luciferase reporter assay, TDAG8 in CCL39 CRE-luc cells; type: cell-based; settings: CCL39 CRE-luc cells stably expressing the receptor; mean+/-sem, N=7
Method: as §1
Cells co-expressing TDAG8 and a cAMP luciferase reporter, as described in Example 8, are plated at 10-20,000 cells per well in white 96 well plates. The day before performing the assay the medium is changed for serum-free DMEM and the cells are incubated overnight at 37° C. in the presence of 5% CO2. […] 100 μl of the appropriate HBS buffer containing the to be tested compound (e.g. from any in-house or commercially available compound library) are then added on the cells. […] Agonists in the assay produce an increase in luminescence whereas antagonists produce a decrease in the luminescence. E.g. antagonists are characterised in the assay by a decrease in luminescence signal compared to the no compound control and e.g. in acidic pH buffer at pH 6.8 or pH 7.0 or at half-maximal activation of human TDAG8. […]

OGR1 [10] = target: T1, OGR1; assay: Cytoplasmic calcium transients (Fluo-3, fluorescence-imaging plate reader), CCL39 cells transfected with OGR1; type: cell-based; settings: shift of extracellular pH from pH 7.6; mean+/-sem, N=3
Method: Method: Cytoplasmic calcium transients are recorded using the calcium indicator Fluo-3 and a fluorescence-imaging plate reader (Molecular Devices/BucherBiotech, Basel, Switzerland).
CCL39 cells transfected with OGR1 are loaded with the acetoxymethylester of the dye (2 μg/ml) for 1 h at 37° C. in full medium containing 5 mM probenicide to inhibit the multidrug resistance transporter. […] To identify receptor antagonists, test compounds are added during the last 15 minutes of this incubation. After transfer to the reader a baseline is recorded (Fb), and cells are then stimulated by addition of an appropriate amount of stronger buffer (20 mM HEPES, pH 6), inducing acidification.
Alternatively, test compounds are added at this stage to identify agonistic molecules. The fluorescence readout F is normalised calculating F′=(F−Fb)/Fb.
Target sequence in this assay (Q15743 whole entry T18I/I19T): as the sequence (Q15743 whole entry) above, with T18I, I19T counted along it

T4 sequence (P46093 whole entry F19H/E51Q/F93P/Q349E): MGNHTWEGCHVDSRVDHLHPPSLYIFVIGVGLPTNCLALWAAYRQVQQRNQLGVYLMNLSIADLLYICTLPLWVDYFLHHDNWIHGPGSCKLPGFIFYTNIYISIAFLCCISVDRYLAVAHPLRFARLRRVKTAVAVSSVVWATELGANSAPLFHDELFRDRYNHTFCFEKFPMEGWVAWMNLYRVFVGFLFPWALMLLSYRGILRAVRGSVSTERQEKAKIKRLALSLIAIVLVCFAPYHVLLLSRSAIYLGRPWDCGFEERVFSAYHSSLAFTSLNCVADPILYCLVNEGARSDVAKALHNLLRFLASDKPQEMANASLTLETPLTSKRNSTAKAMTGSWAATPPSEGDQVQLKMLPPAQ
T5 sequence (Q8IYL9 whole entry A43P/W80T/N97L/F130I/Q180E): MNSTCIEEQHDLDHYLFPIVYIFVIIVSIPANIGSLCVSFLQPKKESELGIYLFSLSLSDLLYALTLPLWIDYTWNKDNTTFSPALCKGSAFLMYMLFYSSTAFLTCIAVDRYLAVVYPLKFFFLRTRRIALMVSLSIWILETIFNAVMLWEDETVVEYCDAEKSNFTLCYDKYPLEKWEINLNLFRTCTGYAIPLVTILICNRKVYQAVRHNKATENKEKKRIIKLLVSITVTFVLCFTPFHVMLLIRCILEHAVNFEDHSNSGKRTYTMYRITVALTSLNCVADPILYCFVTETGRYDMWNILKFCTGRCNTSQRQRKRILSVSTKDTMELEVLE
T3 sequence (P46093 whole entry F19H/E51Q/F93P/Q349E): as the sequence (P46093 whole entry F19H/E51Q/F93P/Q349E) above
T2 sequence (Q8IYL9 whole entry A43P/W80T/N97L/F130I/Q180E): as the sequence (Q8IYL9 whole entry A43P/W80T/N97L/F130I/Q180E) above

Compound: [Cu+2] [Cu^2+]
Inhibition of OGR1-dependent IP formation (OGR1 [1]): strongly Inhibit
Effect on thrombin-stimulated IP formation [2]: without effect
Effect on pH-stimulated IP formation ([3]; PTX pretreatment, or micromolar concentrations of copper ions): inhibited

Compound: CCCCCCCCCCCCC/C=C/[C@@H](O)[C@@H](N)CO[C@@H]1O[C@H](CO)[C@H](O)[C@H](O)[C@H]1O [Psychosine]
Activation of cAMP formation on its own (Human TDAG8 [4]): does not activate cAMP formation on its own

Compound: CCCCCCCCCCCCC/C=C/[C@@H](O)[C@@H](N)COP(=O)([O-])OCC[N+](C)(C)C [SPC]
Effect on pH-dependent stimulation of IP formation (OGR1 [1]; CCL39 cells expressing OGR1): does not affect pH-dependent stimulation of IP formation
Stimulation of OGR1 (IP formation) (OGR1 [1]; CCL39 cells expressing OGR1): does not stimulate the receptor
Activation of cAMP formation on its own (Human GPR4 [5]): does not activate cAMP formation on its own
Effect on pH-dependent stimulation of cAMP formation (Human GPR4 [6]; GPR4): does not modulate pH-dependent stimulation
Effect on forskolin-stimulated adenylyl cyclase [7]: inhibiting forskolin-stimulated adenylyl cyclase

Compound: thrombin: bovine thrombin, activates endogenous receptors in CCL39 cells
pH modulation of the response to the receptor agonist (IP formation) ([2]; range of pH 7-8): not positively modulated

Continued, in another order:

Inhibition of OGR1-dependent IP formation (OGR1 [1]): strongly Inhibit
Compound: [Zn+2] [Zn^2+]
Effect on thrombin-stimulated IP formation [2]: partial inhibition

Half-maximal activation of cAMP formation by TDAG8 (Human TDAG8 [8]): 7.15+/−0.02 pH
Half-maximal activation of the receptor (IP formation) (OGR1 [1]; OGR1 expressed in CCL39 hamster fibroblasts, mean+/-sem, N=12, pH referenced to room temperature): 7.48+/−0.04 pH
Hill coefficient of activation (OGR1 [1]; OGR1 in CCL39 hamster fibroblasts, IP formation): > 2
Half-maximal activation of IP formation (OGR1 [1]; transiently transfected HEK cells, mean+/-sem, N=4): 7.38+/−0.04 pH
Half-maximal activation of luciferase induction by human TDAG8 (Human TDAG8 [9]): 7.28+/−0.02 pH
Half-maximal activation of cAMP formation by GPR4 (Human GPR4 [6]; transiently transfected HEK293 cells, mean+/-sem, N=6): 7.55+/−0.02 pH
Half-maximal activation (intracellular calcium response) (OGR1 [10]): 7.20+/−0.04 pH
Compound: [H+] [protons]
Halfmaximal activation of IP formation ([3]; mean+/-sem, N=5): 7.46+/−0.01 pH
